Assay [1] deals with T1, GDP-loaded KRAS (1-169) G12C, C51S, C80L, C118S (Homo sapiens, UniProt P01116, C118S/C51S/C80L/G12C).
T1 construct: GDP-loaded KRAS (1-169) G12C, C51S, C80L, C118S
As to the kind of experiment: Mass Spectrometry Reactivity Assay (MSRA): covalent adduct of compound and KRAS G12C, Percent Modification. Format: binding. As to conditions: for MSRA (% modification) 5.0 μM 0.017 hr / MSRA (% modification) 5.0 μM 0.25 hr: 5.0 μM compound; for MSRA (% modification) 10 μM 0.25 hr / MSRA (% modification) 10 μM 0.50 hr: 10 μM compound. The essentials: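 GDP-loaded KRAS(1-169) G12C/C51S/C80L/C118S at 5 μM in 25 mM Hepes pH 7.5, 200 mM NaCl, 5% glycerol incubated at RT with compound (typically 5 or 10 μM final, 1% DMSO). Quenched in formic acid at 1-60 min; intact-protein LC-TOF MS gives % modification = modified/(modified+unmodified).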

Assay [2] deals with KRAS G12C (Homo sapiens, UniProt P01116, G12C). As to the kind of experiment: Cell Activity Assay: accumulation of GDP-bound KRAS G12C in MIAPaCa-2 cells (Raf-1 RBD capture, MSD readout). In kind it is cell-based. More on the design: endogenous in cells; host or cells: MIAPaCa-2. As to conditions: 6 hours, assay limit is 30.00. The essentials: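 MIAPaCa-2 cells exposed 6 h at 37 °C to 3-fold compound dilutions (0.3% DMSO final), then lysed. Active GTP-KRAS captured on Raf-1 RBD-coated plates, detected with anti-pan-Ras and SULFO-TAG secondary by MSD electrochemiluminescence. Signal normalized to DMSO and maximum inhibition; IC50 from 4-parameter fit.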

Molecules are shown by their SMILES.

For the molecule `C=CC(=O)N1CCN(c2nc(Oc3ccc(F)c4c3CN(C)CC4)nc3c(Oc4c(Cl)c(F)cc5[nH]ncc45)nccc23)CC1` [Example 54I, 1-(4-{8-[(5-chloro-6-fluoro-1H-indazol-4-yl)oxy]-2-[(5-fluoro-2-methyl-1,2,3,4-tetrahydro-isoquinolin-8-yl)oxy]pyrido [3,4-d]pyrimidin-4-yl}piperazin-1-yl)prop-2-en-1-one], in assay [1], the “MSRA (% modification) 5.0 μM 0.017 hr” value stood at 78%. Besides, the IC50 (as a rule, the midpoint of a concentration-inhibition curve) in assay [2] came to 0.019 µM.
For `C=CC(=O)N1CCN(c2nc(O[C@H]3CN(C)C[C@@H]3OC)nc3c(Oc4c(Cl)c(F)cc5[nH]ncc45)nccc23)CC1` [Example 11I, 1-[4-(8-[(5-chloro-6-fluoro-1H-indazol-4-yl)oxy]-2-{[(3S,4S)-4-methoxy-1-methyl-pyrrolidin-3-yl]oxy}pyrido [3,4-d]pyrimidin-4-yl)piperazin-1-yl]prop-2-en-1-one], the “MSRA (% modification) 5.0 μM 0.25 hr” value in assay [1] is recorded as 32%. In assay [2], this molecule gave an IC50 of 0.321 µM.
Regarding `C=CC(=O)N1CCN(c2ncnc3c(Oc4c(Cl)c(F)cc5[nH]ncc45)nc(Cl)cc23)[C@@H](C)C1` [Example 39A, 1-[(3S)-4-{6-chloro-8-[(5-chloro-6-fluoro-1H-indazol-4-yl)oxy]pyrido[3,4-d]pyrimidin-4-yl}-3-methylpiperazin-1-yl]prop-2-en-1-one], the “MSRA (% modification) 10 μM 0.25 hr” value in assay [1] is on record as 74%. Moreover, the IC50 in assay [2] came out at 0.246 µM.
As to `C=CC(=O)N1CCN(c2nc(NCc3ncc[nH]3)nc3c(Oc4c(C)ccc5[nH]ncc45)cccc23)CC1` [Example 20F, 1-(4-{2-[(1H-imidazol-2-ylmethyl)amino]-8-[(5-methyl-1H-indazol-4-yl)oxy]quinazolin-4-yl}piperazin-1-yl)prop-2-en-1-one], the “MSRA (% modification) 10 μM 0.25 hr” value in assay [1] is listed as 17%. This molecule also gave an IC50 in assay [2] of 2.99 µM.
As for `C=CC(=O)N1CCN(c2nc(OC[C@H]3CCCN3C)nc3c(Oc4c(C)ccc5[nH]ncc45)cccc23)CC1` [Example 06E, 1-[4-(8-[(5-methyl-1H-indazol-4-yl)oxy]-2-{[(2R)-1-methylpyrrolidin-2-yl]methoxy}quinazolin-4-yl)piperazin-1-yl]prop-2-en-1-one], in assay [1], the “MSRA (% modification) 5.0 μM 0.25 hr” value worked out at 35%, the “MSRA (% modification) 10 μM 0.25 hr” value was found to be 70% and the “MSRA (% modification) 10 μM 0.50 hr” value worked out at 75%. This molecule returned an IC50 in assay [2] of 0.585 µM.
Turning to `C=CC(=O)N1CCN(c2ncnc3c(Oc4c(Cl)c(F)cc5[nH]ncc45)nc(Cl)cc23)[C@@H](CO)C1` [Example 38A, 1-[(3R)-4-{6-chloro-8-[(5-chloro-6-fluoro-1H-indazol-4-yl)oxy]pyrido[3,4-d]pyrimidin-4-yl}-3-(hydroxymethyl)piperazin-1-yl]prop-2-en-1-one], the “MSRA (% modification) 10 μM 0.25 hr” value in assay [1] is 56%. Besides, 0.537 µM corresponded to half-maximal inhibition in assay [2] (IC50).
Turning to `C=CC(=O)N1CCN(c2nc(O[C@@H]3CCN(CCOC)C[C@H]3C)nc3c(Oc4c(Cl)c(F)cc5[nH]ncc45)nc(Cl)cc23)CC1` (racemic) [Example 33G, rac-1-[4-(6-chloro-8-[(5-chloro-6-fluoro-1H-indazol-4-yl)oxy]-2-{[(3R,4R)-1-(2-methoxyethyl)-3-methylpiperidin-4-yl]oxy}pyrido[3,4-d]pyrimidin-4-yl)piperazin-1-yl]prop-2-en-1-one], the “MSRA (% modification) 5.0 μM 0.017 hr” value in assay [1] was determined as 51%. Also, in assay [2], the IC50 came to 0.052 µM.
Consider `C=CS(=O)(=O)N1CCN(c2ncnc3c(Oc4c(Cl)c(C)cc5[nH]ncc45)nccc23)CC1` [Example 04, 8-[(5-chloro-6-methyl-1H-indazol-4-yl)oxy]-4-[4-(ethenylsulfonyl)piperazin-1-yl]pyrido[3,4-d]pyrimidine], for which, in assay [1], the “MSRA (% modification) 10 μM 0.50 hr” value came out at 25%. This molecule also came in with an IC50 in assay [2] of 11.7 µM.
`C=CC(=O)N1CCN(c2nc(OCC3(F)CCN(C)CC3)nc3c(Oc4c(Cl)c(F)cc5[nH]ncc45)nc(Cl)cc23)CC1` [Example 15G, 1-(4-{6-chloro-8-[(5-chloro-6-fluoro-1H-indazol-4-yl)oxy]-2-[(4-fluoro-1-methylpiperidin-4-yl)methoxy]pyrido[3,4-d]pyrimidin-4-yl}piperazin-1-yl)prop-2-en-1-one]: the “MSRA (% modification) 5.0 μM 0.25 hr” value in assay [1] is on record as 80%. In assay [2], this molecule had an IC50 of 0.019 µM.
In the case of `C=CC(=O)N1CCN(c2nc(Oc3cccnc3)nc3c(Oc4c(Cl)c(F)cc5[nH]ncc45)nccc23)CC1` [Example 13I, 1-(4-{8-[(5-chloro-6-fluoro-1H-indazol-4-yl)oxy]-2-(pyridin-3-yloxy)pyrido [3,4-d]pyrimidin-4-yl}piperazin-1-yl)prop-2-en-1-one], in assay [1], the “MSRA (% modification) 5.0 μM 0.25 hr” value was 44%. In assay [2], this molecule showed an IC50 of 0.777 µM.
`C=CC(=O)N1CCN(c2ncnc3c(Oc4c(C)c(Cl)cc5[nH]ncc45)nccc23)C[C@@H]1C` [Example 23A, 1-[(2S)-4-{8-[(6-chloro-5-methyl-1H-indazol-4-yl)oxy]pyrido[3,4-d]pyrimidin-4-yl}-2-methylpiperazin-1-yl]prop-2-en-1-one]: the “MSRA (% modification) 10 μM 0.50 hr” value in assay [1] stood at 20%. In assay [2], this molecule had an IC50 of 11.6 µM.
In the case of `C=CC(=O)N1CCN(c2ncnc3c(Oc4c(C)ccc5[nH]nc(Cl)c45)nccc23)CC1` [Example 16C, 1-(4-{8-[(3-chloro-5-methyl-1H-indazol-4-yl)oxy]pyrido[3,4-d]pyrimidin-4-yl}piperazin-1-yl)prop-2-en-1-one], the “MSRA (% modification) 10 μM 0.50 hr” value in assay [1] worked out at 7%. 22.2 µM corresponded to half-maximal inhibition in assay [2] (IC50).
With `C=CC(=O)N1CCN(c2nc(OC[C@@H]3CCCN3C)nc3c(Oc4c(C)c(F)cc5[nH]ncc45)nccc23)CC1` [Example 04I, 1-[4-(8-[(6-fluoro-5-methyl-1H-indazol-4-yl)oxy]-2-{[(2S)-1-methyl-pyrrolidin-2-yl]methoxy}pyrido [3,4-d]pyrimidin-4-yl)piperazin-1-yl]prop-2-en-1-one], the “MSRA (% modification) 5.0 μM 0.25 hr” value in assay [1] was 55%. Besides, the 50% inhibitory concentration (IC50) in assay [2] came to 0.375 µM.
As to `C=CC(=O)N1CCN(c2nc(N3CC(N(C)C)C3)nc3c(Oc4c(C)ccc5[nH]ncc45)nc(C)cc23)[C@@H](C)C1` [Example 05B, 1-[(3S)-4-{2-[3-(dimethylamino)azetidin-1-yl]-6-methyl-8-[(5-methyl-1H-indazol-4-yl)oxy]pyrido[3,4-d]pyrimidin-4-yl}-3-methylpiperazin-1-yl]prop-2-en-1-one], in assay [1], the “MSRA (% modification) 10 μM 0.50 hr” value was 15%. This molecule also yielded an IC50 in assay [2] of 4.03 µM.
On to `C=CC(=O)N1CCN(c2ncnc3c(Oc4c(Cl)c(Cl)cc5[nH]ncc45)nc(Cl)cc23)CC1` [Example 30A, 1-(4-{6-chloro-8-[(5,6-dichloro-1H-indazol-4-yl)oxy]pyrido[3,4-d]pyrimidin-4-yl}piperazin-1-yl)prop-2-en-1-one], for which, in assay [1], the “MSRA (% modification) 10 μM 0.50 hr” value is 67%. This molecule also yielded an IC50 in assay [2] of 0.247 µM.
The matching figures for `C=CC(=O)N1CCN(c2ncnc3c(Oc4c(Cl)c(F)cc5[nH]ncc45)nccc23)C[C@H]1C` [Example 25A, 1-[(2R)-4-{8-[(5-chloro-6-fluoro-1H-indazol-4-yl)oxy]pyrido[3,4-d]pyrimidin-4-yl}-2-methylpiperazin-1-yl]prop-2-en-1-one]: 17% and 8.89 µM.
In the case of `C#CCCN1C[C@@H](OC)[C@H](Oc2nc(N3CCN(C(=O)C=C)CC3)c3cc(Cl)nc(Oc4c(Cl)c(F)cc5[nH]ncc45)c3n2)C1` [Example 39G, 1-[4-(2-{[(3R,4R)-1-(but-3-yn-1-yl)-4-methoxypyrrolidin-3-yl]oxy}-6-chloro-8-[(5-chloro-6-fluoro-1H-indazol-4-yl)oxy]pyrido[3,4-d]pyrimidin-4-yl)piperazin-1-yl]prop-2-en-1-one], in assay [1], the “MSRA (% modification) 5.0 μM 0.017 hr” value is 76%. The same molecule yielded an IC50 in assay [2] of 0.014 µM.
`C=CC(=O)N1CCN(c2nc(Oc3cccc4c3CN(C)C4)nc3c(Oc4c(Cl)c(F)cc5[nH]ncc45)nccc23)CC1` [Example 41I, 1-(4-{8-[(5-chloro-6-fluoro-1H-indazol-4-yl)oxy]-2-[(2-methyl-2,3-dihydro-1H-isoindol-4-yl)oxy]pyrido [3,4-d]pyrimidin-4-yl}piperazin-1-yl)prop-2-en-1-one]: the “MSRA (% modification) 5.0 μM 0.017 hr” value in assay [1] is on record as 70%. In addition, the IC50 in assay [2] stood at 0.021 µM.
For `C=CC(=O)N1CCN(c2nc(OCc3ccccn3)nc3c(Oc4c(Cl)c(F)cc5[nH]ncc45)nccc23)CC1` [Example 08H, 1-(4-{8-[(5-chloro-6-fluoro-1H-indazol-4-yl)oxy]-2-(pyridin-2-ylmethoxy)pyrido[3,4-d]pyrimidin-4-yl}piperazin-1-yl)prop-2-en-1-one], the “MSRA (% modification) 5.0 μM 0.25 hr” value in assay [1] is reported as 36%. Further, the 50% inhibitory concentration (IC50) in assay [2] came to 0.491 µM.
As for `C=CC(=O)N1CCN(c2nc(Oc3cccc4c3CN(C)CC4)nc3c(Oc4c(Cl)c(F)cc5[nH]ncc45)nccc23)CC1` [Example 42I, 1-(4-{8-[(5-chloro-6-fluoro-1H-indazol-4-yl)oxy]-2-[(2-methyl-1,2,3,4-tetrahydro-isoquinolin-8-yl)oxy]pyrido [3,4-d]pyrimidin-4-yl}piperazin-1-yl)prop-2-en-1-one], the “MSRA (% modification) 5.0 μM 0.017 hr” value in assay [1] is given as 73%. In addition, the IC50 in assay [2] stood at 0.01 µM.
The matching figures for `C=CC(=O)N1CCN(c2nc(O[C@@H]3COC[C@H]3N(C)C)nc3c(Oc4c(Cl)c(F)cc5[nH]ncc45)nc(Cl)cc23)CC1` (racemic) [Example 30G, rac-1-[4-(6-chloro-8-[(5-chloro-6-fluoro-1H-indazol-4-yl)oxy]-2-{[(3S,4R)-4-(dimethylamino)oxolan-3-yl]oxy}pyrido[3,4-d]pyrimidin-4-yl)piperazin-1-yl]prop-2-en-1-one]: 53% and 0.026 µM.

Source of the values: US10662204B2 (PFIZER INC., priority 2018, dated 2020).
